Measured values taken from ChEMBL document CHEMBL1146357, “Antidepressant-like profile of action of two 4-amine derivatives of 10,11-dihydro-5H-dibenzo [a,d] cycloheptane in mice evaluated in the forced swimming test” (2007).

Tests used:
Assay type in all cases: functional
Conditions in all cases: route intraperitoneal
Mus musculus [1] = assay: Antidepressant activity in Swiss mouse assessed as immobility time at 5 mg/kg, ip thrice a day by 5-mins swim test
Mus musculus [2] = assay: Antidepressant activity in Swiss mouse assessed as immobility time at 15 mg/kg, ip thrice a day by 5-mins swim test
Mus musculus [3] = assay: Antidepressant activity in Swiss mouse assessed as immobility time at 30 mg/kg, ip thrice a day by 5-mins swim test
Mus musculus [4] = assay: Antidepressant activity in Swiss mouse assessed as immobility time at 50 mg/kg, ip thrice a day by 5-mins swim test
Mus musculus [5] = assay: Antidepressant activity in Swiss mouse assessed as immobility time at 100 mg/kg, ip thrice a day by 5-mins swim test
Mus musculus [6] = assay: Antidepressant activity in Swiss mouse assessed as immobility time at 50 mg/kg/day, ip after 10 days by 5-mins swim test
Mus musculus [7] = assay: Effect on motor co-ordination in Swiss mouse assessed as number of falls at 50 mg/kg, ip after 10 days by Rota-rod test
Mus musculus [8] = assay: Effect on motor co-ordination in Swiss mouse assessed as time on rotating bar at 50 mg/kg, ip after 10 days by Rota-rod test
Mus musculus [9] = assay: Antidepressant activity in Swiss mouse assessed as reduction in immobility time at 50 mg/kg/day, ip after 10 days by 5-mins swim test; parameters: scale not given: the % may be the effect or the level left
Mus musculus [10] = assay: Antidepressant activity in Swiss mouse assessed as immobility time at 30 mg/kg/day, ip after 10 days by 5-mins swim test
Mus musculus [11] = assay: Antidepressant activity in Swiss mouse assessed as immobility time at 1 mg/kg, ip thrice a day by 5-mins swim test
Mus musculus [12] = assay: Effect on motor co-ordination in Swiss mouse assessed as number of falls at 30 mg/kg, ip after 10 days by Rota-rod test
Mus musculus [13] = assay: Effect on motor co-ordination in Swiss mouse assessed as time on rotating bar at 30 mg/kg, ip after 10 days by Rota-rod test
Mus musculus [14] = assay: Antidepressant activity in Swiss mouse assessed as reduction in immobility time at 30 mg/kg/day, ip after 10 days by 5-mins swim test; parameters: scale not given: the % may be the effect or the level left
Mus musculus [15] = assay: Effect on motor co-ordination in Swiss mouse assessed as number of falls at 15 mg/kg, ip after 10 days by Rota-rod test
Mus musculus [16] = assay: Effect on motor co-ordination in Swiss mouse assessed as time on rotating bar at 15 mg/kg, ip after 10 days by Rota-rod test

SMILES | Time (Mus musculus [1]) | Time (Mus musculus [2]) | Time (Mus musculus [3]) | Time (Mus musculus [4]) | Time (Mus musculus [5]) | Time (Mus musculus [6]) | Activity (Mus musculus [7]) | Time (Mus musculus [8]) | Activity (Mus musculus [9]) | Time (Mus musculus [10]) | Time (Mus musculus [11]) | Activity (Mus musculus [12]) | Time (Mus musculus [13]) | Activity (Mus musculus [14]) | Activity (Mus musculus [15]) | Time (Mus musculus [16])
CN(C)CCCNc1cccc2c1C(=O)c1ccccc1CC2 | 220.22 s | 187.1 s | 169.31 s | 132 s | 206.38 s | 190.33 s | 0.5 | 59.5 s | 13% |  |  |  |  |  |  | 
c1ccc2c(c1)CCc1cccc3c1C2=NCCN3 | 197 s | 186.57 s | 169.92 s | 199.25 s |  |  |  |  |  | 186.4 s | 215 s | 0.4 | 58.6 s | 15% |  | 
CN(C)CCCN1c2ccccc2CCc2ccccc21 [IMIPRAMINE] |  | 137.33 s |  |  |  |  |  |  |  |  |  |  |  |  | 0.83 | 58.11 s
